From US7393845B2 (H. Lundbeck A/S, priority 2001, dated 2008)

What follows are compounds tested against T1, human 5-HT1A receptors (Homo sapiens, UniProt P08908) (assay: Inhibition of 3H-5-CT binding to human 5-HT1A receptors). Conditions: not given.
T1 construct: expressed in transfected cells; cell homogenate
T1 sequence (P08908 1-422): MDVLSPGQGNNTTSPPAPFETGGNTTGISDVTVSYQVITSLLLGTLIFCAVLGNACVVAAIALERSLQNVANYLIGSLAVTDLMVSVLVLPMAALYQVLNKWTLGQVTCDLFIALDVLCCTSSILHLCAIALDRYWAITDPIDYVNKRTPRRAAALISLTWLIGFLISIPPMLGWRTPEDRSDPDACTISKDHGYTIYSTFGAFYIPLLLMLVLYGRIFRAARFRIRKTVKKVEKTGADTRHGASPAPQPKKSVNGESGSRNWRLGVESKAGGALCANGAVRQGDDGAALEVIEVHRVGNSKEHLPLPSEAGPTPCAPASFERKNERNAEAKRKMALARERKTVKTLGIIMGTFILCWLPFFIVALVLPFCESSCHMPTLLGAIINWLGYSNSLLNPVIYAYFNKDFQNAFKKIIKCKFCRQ
Description: The affinity of the compounds of the invention to 5-HT1A receptors was determined by measuring the inhibition of binding of a radioactive ligand at 5-HT1A receptors as described in the following test:
Inhibition of ^3H-5-CT Binding to Human 5-HT1A Receptors.
By this method the inhibition by drugs of the binding of the 5-HT1A agonist ^3H-5-carboxamido tryptamine (^3H-5-CT) to cloned human 5-HT1A receptors stably expressed in transfected HeLa cells (HA7) (Fargin, A. et al. J. Biol. Chem. 1989, 264, 14848) is determined in vitro. The assay was performed as a modification of the method described by Harrington, M. A. et al. J. Pharmacol. Exp. Ther. 1994, 268, 1098. Human 5-HT1A receptors (40 μg of cell homogenate) were incubated for 15 minutes at 37° C. in 50 mM Tris buffer at pH 7.7 in the presence of ^3H-5-CT. Non-specific binding was determined by including 10 μM of metergoline. The reaction was terminated by rapid filtration through Unifilter GF/B filters on a Tomtec Cell Harvester. Filters were counted in a Packard Top Counter.

SMILES	IC50 [µM]
N#Cc1cccnc1SCCN1CCN(c2cccc3c2OCCO3)CC1 [Compound 2a]	< 0.3

Same assay, conditions: cloned human 5-HT1A receptors in HeLa cells (HA7), 15 minutes at 37° C., pH 7.7; read-out: IC50, inhibition of 3H-5-CT binding to human 5-HT1A receptors

SMILES	IC50 [µM]
Cc1cc(C)c(C#N)c(SCCN2CCN(c3cc(Cl)cc4c3OCC(=O)N4)CC2)n1 [Compound 2aa, 2-[2-[4-(6-Chloro-2,3-dihydro-1,4-benzoxazin-3-on-8-yl)piperazin-1-yl]ethylsulfanyl]-4,6-dimethylnicotinonitrile]	< 0.3
Cc1cc(C)c(C#N)c(SCCN2CCN(c3cc(Cl)cc4c3OCCN4)CC2)n1 [Compound 2ai, 2-[2-[4-(6-Chloro-2,3-dihydro-1,4-benzoxazin-8-yl)piperazin-1-yl]ethylsulfanyl]-4,6-dimethylnicotinonitrile]	< 0.3
Cc1cc(Cl)nc(SCCN2CCN(c3cc(Cl)cc4c3OCCN4)CC2)c1C#N [Compound 2aj, 6-Chloro-2-[2-[4-(6-chloro-2,3-dihydro-1,4-benzoxazin-8-yl)piperazin-1-yl]ethylsulfanyl]-4-methylnicotinonitrile]	< 0.3
Cc1cc(C)c(S(=O)(=O)c2ccccc2)c(SCCN2CCN(c3cccc4c3OCCO4)CC2)n1 [Compound 2l, 2-{3-[4-(2,3-Dihydrobenzo[1,4]dioxin-5-yl)piperazin-1-yl]ethylsulfanyl}-4,6-dimethyl-3-phenylsulfonylpyridine]	< 0.3
N#Cc1cccnc1SCCN1CCN(c2cc(Cl)cc3c2OCC(=O)N3)CC1 [Compound 2z, 2-[2-[4-(6-Chloro-2,3-dihydro-1,4-benzoxazin-3-on-8-yl)piperazin-1-yl]ethylsulfanyl]nicotinonitrile]	< 0.3

The remaining lines, values ahead:

IC50 [µM]	SMILES
< 0.3	Cc1cc(C(F)(F)F)c(C#N)c(SCCN2CCN(c3cccc4c3OCCO4)CC2)n1 [Compound 1b, 2-{2-[4-(2,3-Dihydrobenzo[1,4]dioxin-5-yl)piperazin-1-yl]ethylsulfanyl}-6-methyl-4-trifluoromethylnicotinonitrile]
< 0.3	N#Cc1cccnc1SCCN1CCN(c2cc(Cl)cc3c2OCCN3)CC1 [Compound 2ah, 2-[2-[4-(6-Chloro-2,3-dihydro-1,4-benzoxazin-8-yl)piperazin-1-yl]ethylsulfanyl]nicotinonitrile]
< 0.3	Cc1cc(N2CCCCC2)nc(SCCN2CCN(c3ccc(C#N)c4c3OCCO4)CC2)c1C#N [Compound 2c, 2-{2-[4-(8-Cyano-2,3-dihydrobenzo[1,4]dioxin-5-yl)piperazin-1-yl]ethylsulfanyl}-4-methyl-6-(piperidin-1-yl)nicotinonitrile]
< 0.3	Cc1cc(Cl)nc(SCCN2CCN(c3cccc4c3OCCO4)CC2)c1C#N [Compound 2o, 6-Chloro-2-{3-[4-(2,3-dihydrobenzo[1,4]dioxin-5-yl)piperazin-1-yl]ethylsulfanyl}-4-methylnicotinonitrile]
< 0.3	Cc1cc(C)c(C#N)c(SCCN2CCN(c3ccc(C#N)c4c3OCCO4)CC2)n1 [Compound 2s, 2-{3-[4-(8-Cyano-2,3-dihydrobenzo[1,4]dioxin-5-yl)piperazin-1-yl]ethylsulfanyl}-4,6-dimethylnicotinonitrile]
< 0.3	Cc1nc(SCCN2CCN(c3ccc(C#N)c4c3OCCO4)CC2)c(C#N)c(C)c1Cl [Compound 2u, 5-Chloro-2-{3-[4-(8-cyano-2,3-dihydrobenzo[1,4]dioxin-5-yl)piperazin-1-yl]ethylsulfanyl}-4,6-dimethylnicotinonitrile]

These compounds were tested against T2, cloned 5-HT1A receptors (Homo sapiens, UniProt P08908) (assay: 5-HT1A antagonistic activity: antagonism of 5-HT induced inhibition of forskolin induced cAMP accumulation in transfected HeLa cells (HA7)). Conditions: not given.
T2 construct: expressed in transfected cells
T2 sequence (P08908 1-422): T1 sequence (P08908 1-422)
Assay type: cell-based
Description: The 5-HT1A antagonistic activity of some of the compounds of the invention has been estimated in vitro at cloned 5-HT1A receptors stably expressed in transfected HeLa cells (HA7). In this test, 5-HT1A antagonistic activity is estimated by measuring the ability of the compounds to antagonize the 5-HT induced inhibition of forskolin induced cAMP accumulation. The assay was performed as a modification of the method described by Pauwels, P. J. et al. Biochem. Pharmacol. 1993, 45, 375.

IC50 [µM]	SMILES
< 7	Cc1cc(C(F)(F)F)c(C#N)c(SCCN2CCN(c3cccc4c3OCCO4)CC2)n1 [Compound 1b, 2-{2-[4-(2,3-Dihydrobenzo[1,4]dioxin-5-yl)piperazin-1-yl]ethylsulfanyl}-6-methyl-4-trifluoromethylnicotinonitrile]
< 7	Cc1ccc(C#N)c(SCCN2CCN(c3ccc(C#N)c4c3OCCO4)CC2)n1 [Compound 1e, {2-[4-(8-Cyano-2,3-dihydrobenzo[1,4]dioxin-5-yl)piperazin-1-yl]ethylsulfanyl}-6-methylnicotinonitrile]
< 7	N#Cc1ccc(N2CCN(CCCSc3ccc(C(F)(F)F)cn3)CC2)c2c1OCCO2 [Compound 1v, 2-{3-[4-(8-Cyano-2,3-dihydrobenzo[1,4]dioxin-5-yl)piperazin-1-yl]propylsulfanyl}-5-trifluoromethylpyridine]
